Experiments:
[1] = Toxicokinetics (D1+D8/21 Days) in monkeys; type: in vivo, cynomolgus monkeys
[2] = Phase I clinical trial of AST-3424 in China: blood pharmacokinetics compared with US data; type: in vivo, human; conditions: Chinese and American patients, printed as 'almost lower than'
[3] = Toxicokinetics (D1+D8/21 Days) in rats; type: in vivo, Sprague-Dawley (SD) rats; conditions: AST-3424 3, 10, 30 mg/kg on D1, D8, D22, D29
[4] = tested on: human lung cancer (H460-GFP) subcutaneous CDX model; experiment: Human lung cancer CDX efficacy model (QW×2 regimen); type: in vivo, nude mice; conditions: 15 mg/kg, BIW×4, I.V.; P<0.01
Experimental: Images of tumor burden in mice were non-invasively collected twice a week by a Fluor Vivo Model 100 imaging system, and the mean value of tumor area in each group was calculated based on imaging analysis results. […] The data from this experiment are the data for the H460 model in Example 3-1 of the aforementioned Patent Application 2 (see Table 5 and Figure 5 of this application).

[5] = tested on: HuPrime® lung cancer LU5173 subcutaneous xenograft model; conditions: day 32 after first administration, AST-3424 1 mg/kg QD×5, 16 days off
Text: (§1) For the experimental procedures and relevant evaluation indicators of the aforementioned solid tumor animal efficacy models, please refer to Examples 7, 8, and 9 in Patent Application 1, namely PCT/US2016/062114, with Publication No. WO2017/087428 (corresponding to Chinese Application CN201680044608.1, with Publication No. CN108290911B), Examples 3 and 4 in Patent Application 2, namely PCT/CN2021/078115, with Publication No. WO2022178821, and Research Literature 1. The aforementioned non-clinical animal efficacy models (PDX) mentioned in the present application are all similar to those in the aforementioned literatures, and the specific operation procedures thereof are not described herein again.
The LU5173 is a HuPrime® xenograft model established from a lung cancer (small cell lung carcinoma) tumor of a patient.
Efficacy was evaluated based on the relative tumor growth inhibition (TGI, %), and safety was evaluated based on animal body weight changes and mortality.

[6] = tested on: HuPrime® lung cancer LU5161 subcutaneous xenograft model; conditions: day 29 after first administration, AST-3424 1 mg/kg QD×5, 16 days off
Text: as §1
LU5161 is a HuPrime® xenograft model established from a lung tumor (small cell lung cancer) of a patient.
(§2) Efficacy was evaluated based on the relative tumor growth inhibition rate (TGI, %), and safety was evaluated based on animal body weight changes and mortality.

[7] = tested on: HuPrime® pancreatic cancer PA2637 subcutaneous xenograft model; conditions: Day 36 after first administration, AST-3424 1 mg/kg QD×5, 16 days off
Text: as §1
PA2637 is a HuPrime® xenograft model established from a pancreatic cancer tumor of a patient.
as §2

[8] = tested on: HuPrime® pancreatic cancer PA1170 subcutaneous xenograft model; experiment: Pancreatic cancer PA1170 subcutaneous xenograft efficacy model; type: in vivo, BALB/c nude mice; conditions: 50 mg/kg, QD×30
[9] = tested on: HuPrime® pancreatic cancer PA9451 subcutaneous xenograft model; experiment: Pancreatic cancer PA9451 subcutaneous xenograft efficacy model; type: in vivo, BALB/c nude mice; conditions: 50 mg/kg, QD×30

O=P(O)(N1CC1)N1CC1 [AST-2660]
exposure to AST-2660 as % of the AST-3424 exposure ([1]; Day 1): 27.2%
exposure to AST-2660 as % of the AST-3424 exposure ([1]; Day 29): 11.0%
concentrations after 8 hours [2]: lower than 1 ng/ml
exposure on Day 29 compared to Day 1 [3]: decreased

CC(=O)O[C@H]1C(=O)[C@@]2(C)[C@H]([C@H](OC(=O)c3ccccc3)[C@]3(O)C[C@H](OC(=O)[C@H](O)[C@@H](NC(=O)c4ccccc4)c4ccccc4)C(C)=C1C3(C)C)[C@]1(OC(C)=O)CO[C@@H]1C[C@@H]2O [Taxol, reference compound]
TGI [4]: 64%

O=P1(NCCCl)OCCCN1CCCl (stereo not drawn) [ifosfamide, reference compound]
TGI (%) ([5]; QD×5 (P < 0.001), ifosfamide 6.0 mg/kg QD×5/week for 2 weeks (p > 0.05)): 44.45%
mean tumor volume ([5]; QD×5, ifosfamide 6.0 mg/kg QD×5/week for 2 weeks, vehicle 2276.68): 1229.15 mm^3
TGI (%) ([6]; QD×5 (P < 0.001), ifosfamide 60 mg/kg QD×5/week for 2 weeks (p > 0.05)): 27.39%
mean tumor volume ([6]; QD×5, ifosfamide 60 mg/kg QD×5/week for 2 weeks, negative control 2238.97): 1636.39 mm^3
TGI (%) ([7]; QD×5 (P < 0.001), ifosfamide 60 mg/kg QD×5/week for 2 weeks (no statistical difference)): 2.74%
mean tumor volume ([7]; QD×5, ifosfamide 60 mg/kg QD×5/week for 2 weeks, vehicle 977.46): 938.33 mm^3

O=C(c1cc(Cc2n[nH]c(=O)c3ccccc23)ccc1F)N1CCN(C(=O)C2CC2)CC1 [olaparib, reference compound]
TGI (%) ([8]; Day 30, P > 0.05): 57.66%
mean tumor volume ([8]; Day 30 after first administration): 517.75 mm^3
TGI (%) ([9]; Day 36, P < 0.001): 47.88%
mean tumor volume ([9]; Day 36 after first administration): 344.84 mm^3

From EP4775209A1 (Ascentawits Pharmaceuticals, Ltd., priority 2023, dated 2025)
